What is called IC50 is the point on the concentration scale where inhibition reaches its midpoint.

The structures appear in SMILES notation. A value given as a limit tells only on which side of the number the result lay.

The target in this assay is T1, P2X7 receptor (Homo sapiens, UniProt Q99572).
T1 construct: host or cells: SH-SY5Y
T1 sequence (Q99572 1-595): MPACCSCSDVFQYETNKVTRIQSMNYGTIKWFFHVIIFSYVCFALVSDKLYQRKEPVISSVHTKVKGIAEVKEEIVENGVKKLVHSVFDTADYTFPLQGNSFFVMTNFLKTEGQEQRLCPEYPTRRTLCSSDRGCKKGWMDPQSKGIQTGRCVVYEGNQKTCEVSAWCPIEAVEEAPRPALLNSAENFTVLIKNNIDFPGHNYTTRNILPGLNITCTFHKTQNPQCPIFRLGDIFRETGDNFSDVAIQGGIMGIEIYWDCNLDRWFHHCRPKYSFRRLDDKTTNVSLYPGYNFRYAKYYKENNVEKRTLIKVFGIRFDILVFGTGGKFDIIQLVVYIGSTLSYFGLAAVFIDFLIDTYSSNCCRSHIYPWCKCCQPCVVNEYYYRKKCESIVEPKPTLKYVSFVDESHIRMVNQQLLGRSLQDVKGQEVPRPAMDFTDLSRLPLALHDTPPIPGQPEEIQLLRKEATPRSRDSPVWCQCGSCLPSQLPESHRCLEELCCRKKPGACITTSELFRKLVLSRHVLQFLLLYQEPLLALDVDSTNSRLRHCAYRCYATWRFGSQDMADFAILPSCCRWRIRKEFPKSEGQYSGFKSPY
The assay can be described thus: P2X7 calcium mobilization assay, high throughput, antagonist activity (Example 4A). Type of assay: cell-based. Conditions: 50% decrease in the fluorescence response of cells exposed to 80 μM of 2′(3′)-O-(4-benzoyl-benzoyl)adenosine 5′-triphosphate; Example 4A; read-out: IC50. In a few lines:
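100,000 cells/well, plated day -1. Dye 1 h → rinse → compound 1 h, RT → FLIPR^TETRA Ca2+ mobilization. Max RFU minus mean negative control (no agonist); mean agonist-well max as positive control.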
In general terms: A change in cytosolic calcium serves as a functional read-out for many receptors and channels.

Regarding `CCN(C)CCN(CC)C(=O)c1cn2c(C(=O)NCC34CC5CC(CC(C5)C3)C4)cccc2n1` [Compound 673, 5-N-(adamantan-1-ylmethyl)-2-N-ethyl-2-N-{2-[ethyl(methyl)amino]ethyl}imidazo[1,2-a]pyridine-2,5-dicarboxamide], the IC50 is less than 2000 nM.
`CCN(CC)C1CCN(C(=O)c2cn3c(C(=O)NCC45CC6CC(CC(C6)C4)C5)cccc3n2)CC1` [Compound 674, N-(adamantan-1-ylmethyl)-2-{[4-(diethylamino)piperidin-1-yl]carbonyl}imidazo [1,2-a]pyridine-5-carboxamide]: the half-maximal inhibitory concentration (IC50) was less than 2000 nM.
In the case of `CCN(CC)CCN(C)C(=O)c1cn2c(C(=O)NCC34CC5CC(CC(C5)C3)C4)cccc2n1` [Compound 675, 5-N-(adamantan-1-ylmethyl)-2-N-[2-(diethylamino)ethyl]-2-N-methylimidazo[1,2-a]pyridine-2,5-dicarboxamide], the 50% inhibitory concentration (IC50) was less than 2000 nM.
Regarding `CCN(C(=O)c1cn2c(C(=O)NCC34CC5CC(CC(C5)C3)C4)cccc2n1)C1CCN(C)CC1` [Compound 679, 5-N-(adamantan-1-ylmethyl)-2-N-ethyl-2-N-(1-methylpiperidin-4-yl)imidazo[1,2-a]pyridine-2,5-dicarboxamide], the half-maximal inhibitory concentration (IC50) was less than 2000 nM.
`CC(C)N(C(=O)c1cn2c(C(=O)NCC34CC5CC(CC(C5)C3)C4)cccc2n1)C1CCN(C)CC1` [Compound 680, 5-N-(adamantan-1-ylmethyl)-2-N-isopropyl-2-N-(1-methylpiperidin-4-yl)imidazo[1,2-a]pyridine-2,5-dicarboxamide]: the IC50 is less than 2000 nM.
For `COCCN(C(=O)c1cn2c(C(=O)NCC34CC5CC(CC(C5)C3)C4)cccc2n1)C1CCN(C)CC1` [Compound 681, 5-N-(adamantan-1-ylmethyl)-2-N-(2-methoxyethyl)-2-N-(1-methylpiperidin-4-yl)imidazo[1,2-a]pyridine-2,5-dicarboxamide], the IC50 is less than 2000 nM.
Under `O=C(Cc1cn2c(C(=O)NCC34CC5CC(CC(C5)C3)C4)cccc2n1)NC1CN2CCC1CC2` (centres unmarked) [Compound 684, N-(adamantan-1-ylmethyl)-2-[2-(1-azabicyclo[2.2.2]oct-3-ylamino)-2-oxoethyl]imidazo[1,2-a]pyridine-5-carboxamide] stands less than 2000 nM; under `O=C(NCC12CC3CC(CC(C3)C1)C2)c1cccc2nc(Cc3nnn[nH]3)cn12` [Compound 685, N-(adamantan-1-ylmethyl)-2-(1H-tetrazol-5-ylmethyl)imidazo[1,2-a]pyridine-5-carboxamide], less than 2000 nM.
For the compound `O=C(O)c1cn2c(C(=O)NCC34CC5CC(CC(C5)C3)C4)cccc2n1` [Compound 686, 5-[(adamantan-1-ylmethyl)carbamoyl] imidazo[1,2-a] pyridine-2-carboxylic acid], the IC50 was less than 2000 nM.
On to `CC(C)CC(CNC(=O)c1cccc2nc(CN3CCOCC3)cn12)C1CCCCC1` (centres unmarked) [Compound 687, N-(2-cyclohexyl-4-methylpentyl)-2-(morpholin-4-ylmethyl)imidazo[1,2-a]pyridine-5-carboxamide], for which the half-inhibitory concentration (IC50) is less than 2000 nM.
For `CC(C)CC(CNC(=O)c1cccc2nc(CN3CCOCC3)cn12)c1ccccc1` (centres unmarked) [Compound 688, N-(4-methyl-2-phenylpentyl)-2-(morpholin-4-ylmethyl)imidazo[1,2-a]pyridine-5-carboxamide], the IC50 is less than 2000 nM.
For the compound `CCOC(=O)C(Cc1cccnc1)c1cn2c(C(=O)NCC34CC5CC(CC(C5)C3)C4)cccc2n1` (centres unmarked) [Compound 689, ethyl 2-{5-[(adamantan-1-ylmethyl)carbamoyl]imidazo[1,2-a]pyridin-2-yl}-3-pyridin-3-ylpropanoate], the IC50 was less than 2000 nM.
Take `CNC1CCN(C(=O)Cc2cn3c(C(=O)NCC45CC6CC(CC(C6)C4)C5)cccc3n2)C1` (centres unmarked) [Compound 690, N-(adamantan-1-ylmethyl)-2-{2-[3-(methylamino)pyrrolidin-1-yl]-2-oxoethyl}imidazo[1,2-a]pyridine-5-carboxamide]: the IC50 was less than 2000 nM.
For `CN(C)[C@@H]1CCN(C(=O)Cc2cn3c(C(=O)NCC45CC6CC(CC(C6)C4)C5)cccc3n2)C1` [Compound 691, N-(adamantan-1-ylmethyl)-2-{2-[(3R)-3-(dimethylamino)pyrrolidin-1-yl]-2-oxoethyl}imidazo[1,2-a]pyridine-5-carboxamide], the concentration for half-maximal inhibition (IC50) was less than 2000 nM.
Regarding `O=C(O)CCCc1cn2c(C(=O)NCC34CC5CC(CC(C5)C3)C4)cccc2n1` [Compound 692, 4-{5-[(adamantan-1-ylmethyl)carbamoyl]imidazo[1,2-a]pyridin-2-yl} butanoic acid], the 50% inhibitory concentration (IC50) was less than 2000 nM.
For `CC(Cc1cn2c(C(=O)NCC34CC5CC(CC(C5)C3)C4)cccc2n1)C(=O)O` (centres unmarked) [Compound 693, 3-{5-[(adamantan-1-ylmethyl)carbamoyl]imidazo[1,2-a]pyridin-2-yl}-2-methylpropanoic acid], the IC50 was less than 2000 nM.
Regarding `O=C(NCC12CC3CC(CC(C3)C1)C2)c1cccc2nc(C(=O)N3CCCC(C(=O)NCCCO)C3)cn12` (centres unmarked) [Compound 694, N-(adamantan-1-ylmethyl)-2-({3-[(3-hydroxypropyl)carbamoyl]piperidin-1-yl}carbonyl) imidazo[1,2-a]pyridine-5-carboxamide], the IC50 is less than 2000 nM.
As to `CC(C)N(CCCO)C(=O)c1cn2c(C(=O)NCC34CC5CC(CC(C5)C3)C4)cccc2n1` [Compound 695, 5-N-(adamantan-1-ylmethyl)-2-N-(3-hydroxypropyl)-2-N-isopropylimidazol[1,2-a]pyridine-2,5-dicarboxamide], the 50% inhibitory concentration (IC50) is less than 2000 nM.
Take `CC(C)(C)NCCOC(=O)c1cn2c(C(=O)NCC34CC5CC(CC(C5)C3)C4)cccc2n1` [Compound 696, 2-(tert-butylamino)ethyl 5-[(adamantan-1-ylmethyl)carbamoyl] imidazo[1,2-a] pyridine-2-carboxylate]: the IC50 is less than 2000 nM.
`CC(C)N(CCO)C(=O)c1cn2c(C(=O)NCC34CC5CC(CC(C5)C3)C4)cccc2n1` [Compound 697, 5-N-(adamantan-1-ylmethyl)-2-N-(2-hydroxyethyl)-2-N-isopropylimidazo[1,2-a]pyridine-2,5-dicarboxamide]: the concentration for half-maximal inhibition (IC50) is less than 2000 nM.
Under `CC1CCCCN1C1CCN(C(=O)c2cn3c(C(=O)NCC45CC6CC(CC(C6)C4)C5)cccc3n2)CC1` (centres unmarked) [Compound 699, N-(adamantan-1-ylmethyl)-2-[(2-methyl-1,4′-bipiperidin-1′-yl)carbonyl]imidazo[1,2-a]pyridine-5-carboxamide] stands less than 2000 nM; under `O=C(NCC12CC3CC(CC(C3)C1)C2)c1cccc2nc(C(=O)N3CCN([C@@H]4CCC[C@H]4O)CC3)cn12` [Compound 700, N-(adamantan-1-ylmethyl)-2-({4-[(1R,2R)-2-hydroxycyclopentyl]piperazin-1-yl}carbonyl)imidazo[1,2-a]pyridine-5-carboxamide], less than 2000 nM.
With `O=C(NCC12CC3CC(CC(C3)C1)C2)c1cccc2nc(C(=O)N3CCN([C@@H]4CCCC[C@H]4O)CC3)cn12` [Compound 701, N-(adamantan-1-ylmethyl)-2-({4-[(1R,2R)-2-hydroxycyclohexyl]piperazin-1-yl}carbonyl)imidazo[1,2-a]pyridine-5-carboxamide], the IC50 is less than 2000 nM.
`CC(C)(O)C1CCCCN1C(=O)c1cn2c(C(=O)NCC34CC5CC(CC(C5)C3)C4)cccc2n1` (centres unmarked) [Compound 702, N-(adamantan-1-ylmethyl)-2-{[2-(1-hydroxy-1-methylethyl)piperidin-1-yl]carbonyl}imidazo[1,2-a]pyridine-5-carboxamide]: the IC50 is less than 2000 nM.
As for `CN(C)CCNC(=O)C1CCCN(C(=O)c2cn3c(C(=O)NCC45CC6CC(CC(C6)C4)C5)cccc3n2)C1` (centres unmarked) [Compound 704, N-(adamantan-1-ylmethyl)-2-[(3-{[2-(dimethylamino)ethyl]carbamoyl}piperidin-1-yl)carbonyl]imidazo[1,2-a]pyridine-5-carboxamide], the half-maximal inhibitory concentration (IC50) was less than 2000 nM.
`N#CCC1CCN(C(=O)c2cn3c(C(=O)NCC45CC6CC(CC(C6)C4)C5)cccc3n2)CC1` [Compound 705, N-(adamantan-1-ylmethyl)-2-{[4-(cyanomethyl)piperidin-1-yl]carbonyl} imidazo[1,2-a]pyridine-5-carboxamide]: the IC50 is less than 2000 nM.
Under `CN1CCN(C)C(CN(C)C(=O)c2cn3c(C(=O)NCC45CC6CC(CC(C6)C4)C5)cccc3n2)C1` (centres unmarked) [Compound 706, 5-N-(adamantan-1-ylmethyl)-2-N-[(l,4-dimethylpiperazin-2-yl)methyl]-2-N-methylimidazo[1,2-a]pyridine-2,5-dicarboxamide] stands less than 2000 nM.
For the compound `CN(CC1CCCCN1C)C(=O)c1cn2c(C(=O)NCC34CC5CC(CC(C5)C3)C4)cccc2n1` (centres unmarked) [Compound 707, 5-N-(adamantan-1-ylmethyl)-2-N-methyl-2-N-[(1-methylpiperidin-2-yl)methyl]imidazo[1,2-a]pyridine-2,5-dicarboxamide], the half-inhibitory concentration (IC50) was less than 2000 nM.
In the case of `COCc1ccc(CN(C)C(=O)c2cn3c(C(=O)NCC45CC6CC(CC(C6)C4)C5)cccc3n2)nc1` [Compound 710, 5-N-(adamantan-1-ylmethyl)-2-N-{[5-(methoxymethyl)pyridin-2-yl]methyl}-2-N-methylimidazo[1,2-a]pyridine-2,5-dicarboxamide], the concentration for half-maximal inhibition (IC50) was less than 2000 nM.

Source of the values: patent publication US8431593B2, “Heteroaryl amide derivatives” (H. Lundbeck A/S, priority 2006, dated 2013).
